The text below walks through data of patent US20090053138A1, “Stabilized Aptamers to Platelet Derived Growth Factor and their Use as Oncology Therapeutics” (priority 2002, published 2009).

Data set [1] addresses T1, VEGF (Homo sapiens, UniProt P15692).
T1 sequence (P15692 27-191 isoform P15692-4): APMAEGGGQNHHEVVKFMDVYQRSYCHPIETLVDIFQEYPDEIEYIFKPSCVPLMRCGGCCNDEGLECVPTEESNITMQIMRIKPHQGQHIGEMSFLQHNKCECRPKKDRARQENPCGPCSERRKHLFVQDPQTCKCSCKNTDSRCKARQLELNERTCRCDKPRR
The data set is described as follows: Dot-blot binding assay, VEGF. The method, then:
(§1) Binding data for the constituent aptamers and the multivalent aptamers were collected by dot-blot assays in which radio-labeled aptamer is incubated with protein target and then forced through a sandwich of nitrocellulose over nylon and the results shown in FIG. 22. Protein-associated radio-label is captured on the nitrocellulose membrane while the balance of the radio-label is captured on the nylon membrane. The radio-label data is collected on a phosphorimaging plate. […] The multivalent aptamers TK.131.012.A (SEQ ID NO. 9) and TK.131.012.B (SEQ ID NO. 10) were made synthetically.

The target of data set [2] is T2, PDGF BB (Homo sapiens, UniProt P01127). The data set is described as follows: ERK phosphorylation assay in 3T3 cells. It is filed as cell-based, mouse. Also on record: purchased R&D Systems, Minneapolis, Minn. Particulars: 10 ng/ml PDGF-BB, 30 minutes. The method, then: ERK phosphorylation was used to test whether ARC124 (SEQ ID NO:11) retained its functionality after the incorporation of CpG motifs into the aptamer sequence. One hundred and fifty thousand 3T3 cells (a mouse fibroblast cell line which contains PDGF-R) were plated into an appropriate number of wells on a 12 well plate one day prior to the experiment and serum starved in 0.5% FBS overnight. Cells were treated with 10 ng/ml PDGF-BB (R&D Systems, Minneapolis, Minn.) in the presence or absence of CpG-island containing PDGF aptamers for 30 minutes. […] Protein concentration in cell lysates was determined using BIO-RAD protein assay reagent according to manufacturer's recommendations (Bio-Rad, Hercules, Calif.). Lysates were prepared by adding NuPage LDS Sample Buffer 4× with 0.1M DTT to a final concentration of 1× (invitrogen, Carlsbad, Calif.) and incubated at 70° C. for 7 minutes. Forty micrograms of total protein was loaded into each well of a NuPage 10%, Bis-Tris gel (Invitrogen, Carlsbad, Calif.). The gel was run at 100 mAmp for 1 hour. Gel was then transferred to a HyBond ECL nitrocellulose membrane (Amersham, Piscataway, N.J.) at 250 mAmp for 3 hours. After transfer, the nitrocellulose was blocked with 5% BSA (Sigma, St. Louis, Mo.) in PBS for one hour at room temperature. The nitrocellulose membrane was incubated with a p44/42 MAP Kinase antibody overnight at 4° C. […]

In data set [3] the target is T2, PDGF BB. In words: Dot-blot binding assay, PDGF BB. The method, then:
as §1

Strand notation (5' to 3'): a small letter for the sugar, then the base; units joined by * are phosphorothioate-linked, units joined directly phosphodiester-linked; [ ] holds rarer units or linkages, { } end groups; capitals alone tell only the bases. [invdT] = inverted (3'-3') thymidine; d = 2'-deoxy (DNA); m = 2'-O-methyl

T2 sequence (P01127 82-190 limits assumed): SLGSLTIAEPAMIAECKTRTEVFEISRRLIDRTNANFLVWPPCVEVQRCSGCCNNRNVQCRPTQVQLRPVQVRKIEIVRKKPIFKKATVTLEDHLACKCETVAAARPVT

In the case of “5′-mAmUmGmCmAmGmUmUmUmGmAmGmAmAmGmUmCmGmCmGmCmAmU-[3T]-3′ (SEQ ID NO: 7) (AUGCAGUUUGAGAAGUCGCGCAU; all 2'-O-methyl, [invdT] at 3' end, backbone not given here) [ARC245]”, the Kd in data set [1] was approximately 2 nM.

As to “CpGARC124short: PDGF aptamer ARC124 with CpG motif appended (SEQ ID NO:20) (AACGTTCGAGCAGGCTACGGCACGTAGAGCATCACCATGATCCTGC; synthetic aptamer; (1)..(11) phosphorothiate backbone between nucleotides 1-11; (44)..(46) phosphorothiate backbone between nucleotides 44-46)”, the “phosphorylation of ERK” value in data set [2] is “can block phosphorylation of ERK”.

As for “LongCpGARC124: PDGF aptamer ARC124 with CpG motif appended (SEQ ID NO:21) (dG*dT*dG*dA*dA*dC*dG*dT*dT*dC*dG*dA*dG*dCdAdGdGdCdTdAdCdGdGdCdAdCdGdTdAdGdAdGdCdAdTdCdAdCdCdAdTdGdAdTdCdCdT*dG*dC[invdT]; further chemistry not fully specified)”, in data set [2], the “phosphorylation of ERK” value is “can block phosphorylation of ERK”.

In the case of “TK.131.012.A: PDGF/VEGF binding multivalent aptamer (SEQ ID NO:9) (CAGGCTACGAUGCAGUUUGAGAAGUCGCGCAUCGTAGAGCATCAGAAATGATCCTG; sugars from the 5' end d9 m23 d24, 3' [invdT], backbone not given here; further chemistry not fully specified)”, the equilibrium dissociation constant (Kd) in data set [1] and in data set [3] was approximately 10 nM each time. In the case of “TK.131.012.B: PDGF/VEGF binding multivalent aptamer (SEQ ID NO: 10) (CAGGCTACGUGCAGUUUGAGAAGUCGCGCACGTAGAGCATCAGAAATGATCCTG; sugars from the 5' end d9 m21 d24, 3' [invdT], backbone not given here; further chemistry not fully specified)”, the Kd was approximately 5 nM in data set [1] and approximately 10 nM in data set [3].
